Experimental data as given in paper PMC4207401, “A Novel Inhibitor of Mammalian Triosephosphate Isomerase Found by an In Silico Approach” (International Journal of Medicinal Chemistry, 2014).
Like-named read-outs stand apart in the source and are kept apart here.

Target: T1, triosephosphate isomerase (rabbit muscle TIM) (Oryctolagus cuniculus, UniProt P00939)
T1 construct: gene TPI1; native enzyme from rabbit muscle, commercial reagent (Sigma-Aldrich); homodimer; 1R2R is the rabbit TIM structure used for docking
Experiment: coupled assay with alpha-glycerophosphate dehydrogenase, NADH at […] nm
Assay type: biochemical

T1 sequence (P00939 2-249): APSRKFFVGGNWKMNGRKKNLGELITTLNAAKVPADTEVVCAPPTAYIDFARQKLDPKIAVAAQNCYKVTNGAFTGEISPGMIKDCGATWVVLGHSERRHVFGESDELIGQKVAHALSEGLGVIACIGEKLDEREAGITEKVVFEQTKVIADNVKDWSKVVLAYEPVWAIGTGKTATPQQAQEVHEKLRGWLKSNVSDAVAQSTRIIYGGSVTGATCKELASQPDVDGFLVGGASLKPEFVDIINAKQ

| SMILES | Ki (read-out: K i) [µM] | Ki (glyceraldehyde-3-phosphate 0.4 mM (= Km), NADH 0.1 mM, pH 8.0, Ki calculated from IC50 by Ki = Kapp/(1 + [S]/Km), read-out: 2) [µM] |
| --- | --- | --- |
| Nc1nc2c(c(=O)[nH]1)C(c1ccccc1)C1=C(N2)c2ccccc2C1=O (racemic) [compound 1, 2-amino-5-phenyl-3H-indeno[2′,1′:5,6]pyrido[2,3-d]pyrimidine-4,6(5H,11H)-dione] | 44 |  |
| O=C1C2=C(Nc3[nH]c(=O)[nH]c(=O)c3[C@H]2c2ccccc2)c2ccccc21 [compound 2, Compound 2] |  | > 440 |
